Measurements: US20140113014A1, “CHICORY FOR PREVENTION AND TREATMENT OF NEURODEGENERATION” (NESTEC S.A., priority 2011, published 2014)

System: primary cortical neurons
Test: Primary cortical neuron aging model, neuronal survival by NeuN count
Format: cell-based, rat
Details: run in parallel with the chicory extract
Description: A primary cortical culture system to study the effects of compounds on neuronal aging has been developed and applied to study the effects of chicory on neuronal survival. This cell culture system has been developed as a model of neuronal aging in order to mimic processes which occur during normal aging of neurons without a neurotoxic challenge. With this model beneficial effects against physiological neurodegeneration during aging can be studied and compounds which increase neuronal survival can be identified. This is a different approach from the models described in the prior art in which the cells are challenged with a neurotoxic insult in order to induce different degrees of neurodegeneration. Using immune-cytochemical analysis of the antigen, NeuN (Neuronal Nuclei), which is a sensitive marker of neurodegeneration, a reliable method for examining the lifespan of cortical neurons in culture has been established. The sensitivity of NeuN can be attributed to its steady reduction in expression intensity as neurons degenerate, which is in contrast to many antigens whose expression can distinguish only between living and dead neurons. Between four and six weeks after plating, the cortical neurons begin to degenerate, leading to a […] in NeuN count over this time (FIG. 1A). […] All tests were fixed at a time point between 6 and 8 weeks. […]

## O=C(Nc1cccc([N+](=O)[O-])c1)c1cccc(S(=O)(=O)N2CCCCCC2)c1 [AK-1]
  neuroprotective effect of the positive control relative to the chicory extract: smaller neuroprotective effect than the chicory extract
  neuroprotective effect of the positive control versus non-treated cells: significantly positive over non-treated cells
